In brackets after ≈: the same amount, converted by molar mass. Where two headings read alike, the source gives them in different places.
Assays:
Assay type in all cases: cell-based
[1] = tested on: Collectotrichum graminicola (Cg); test: In vitro pathogen growth inhibition assay, Cg; details: 48 h
Procedure: (§1) A growth inhibition assay was conducted to determine the ability of compounds to control the growth of fungal pathogens, such as Botrtyis cinerea (Bc), Collectotrichum graminicola (Cg), Diplodia maydis (Dm), Fusarium moniliforme (Fm), Fusarium virguliforme (Fv), Phytophthora capsici (Pc), Rhizoctonia solani (Rs), and Septoria tritici (St). The compounds listed in Table 1 were each dissolved in DMSO at 2.5 mg/ml to produce compound stock solutions (“stocks”). […] Negative controls on each plate included 2% DMSO, water, and a blank (media+2% DMSO). Fungal spores were isolated from previously sub-cultured plates of Botrtyis cinerea (Bc), Collectotrichum graminicola (Cg), Diplodia maydis (Dm), Fusarium moniliforme (Fm), Fusarium virguliforme (Fv), Phytophthora capsici (Pc), and Septoria tritici (St). The isolated spores were diluted to individual concentrations with a 17% V8 liquid media. For Rhizoctonia solani (Rs), 1.5 mm mycelial plugs were used in place of spores and ¼ Potato Dextrose Broth (PDB) was used for dilution. The spore concentrations and plug sizes were based on growth curves generated at 48 hours for each pathogen. In a second 96-well plate, the spores or mycelial plugs, media, diluted compound solutions, and controls were combined. Once the compound was added, a true final concentration of compound in each well was measured by an OD600 reading, which adjusted for any compound precipitation that might have occurred in the well. Plate readings were repeated at both 24 and 48 hours. The blank negative control was used as a background subtraction. Additional visual ratings were performed at both 24 and 48 hours for checking on precipitation and confirming efficacy. […] Both tables list the concentration of each compound that was sufficient to ≥90% inhibition of growth for each of the fungal pathogens listed above. In addition, some of compounds were tested in a yeast growth inhibition assay for Saccharomyces cerevisiae (Sc). Table 2 lists the concentration of the tested compound that was sufficient to ≥75% inhibition of Saccharomyces cerevisiae (Sc).

Diplodia maydis (Dm) = test: In vitro pathogen growth inhibition assay, Dm; details: Stenocarpella maydis, 48 h
Procedure: as §1

Botrtyis cinerea (Bc) = test: In vitro pathogen growth inhibition assay, Bc; details: 48 h
Procedure: as §1

Rhizoctonia solani (Rs) = test: In vitro pathogen growth inhibition assay, Rs (mycelial plugs); details: Rhizoctonia solani, 48 h
Procedure: as §1

[2] = tested on: Fusarium virguliforme (Fv); test: In vitro pathogen growth inhibition assay, Fv
Procedure: as §1

[3] = tested on: Phytophthora capsici (Pc); test: In vitro pathogen growth inhibition assay, Pc; details: 48 h
Procedure: as §1

Septoria tritici (St) = test: In vitro pathogen growth inhibition assay, St; details: Zymoseptoria tritici, 48 h
Procedure: as §1

[4] = tested on: Fusarium moniliforme (Fm); test: In vitro pathogen growth inhibition assay, Fm; details: Fusarium verticillioides
Procedure: as §1

[5] = ≥90% inhibition, 48 hours vs 2% DMSO control, read-out: Compound Concentration (ppm) sufficient for ≥90% inhibition of growth, Cg
[6] = ≥90% inhibition, 48 hours vs 2% DMSO control, read-out: Compound Concentration (ppm) sufficient for ≥90% inhibition of growth, Dm
[7] = ≥90% inhibition, 48 hours vs 2% DMSO control, read-out: Compound Concentration (ppm) sufficient for ≥90% inhibition of growth, Bc
[8] = ≥90% inhibition, mycelial plugs, 48 hours vs 2% DMSO control, read-out: Compound Concentration (ppm) sufficient for ≥90% inhibition of growth, Rs
[9] = ≥90% inhibition, 48 hours vs 2% DMSO control, read-out: Compound Concentration (ppm) sufficient for ≥90% inhibition of growth, Fv
[10] = ≥90% inhibition, 48 hours vs 2% DMSO control, read-out: Compound Concentration (ppm) sufficient for ≥90% inhibition of growth, Pc
[11] = ≥90% inhibition, 48 hours vs 2% DMSO control, read-out: Compound Concentration (ppm) sufficient for ≥90% inhibition of growth, St
[12] = ≥90% inhibition, 48 hours vs 2% DMSO control, read-out: Compound Concentration (ppm) sufficient for ≥90% inhibition of growth, Fm
[13] = ≥90% growth inhibition, 48 hours, vs 2% DMSO control, read-out: Compound Concentration (ppm) sufficient for ≥90% inhibition of Cg
[14] = ≥90% growth inhibition, 48 hours, vs 2% DMSO control, read-out: Compound Concentration (ppm) sufficient for ≥90% inhibition of Dm
[15] = ≥90% growth inhibition, 48 hours, vs 2% DMSO control, read-out: Compound Concentration (ppm) sufficient for ≥90% inhibition of Bc
[16] = ≥90% growth inhibition, mycelial plugs, 48 hours, vs 2% DMSO control, read-out: Compound Concentration (ppm) sufficient for ≥90% inhibition of Rs
[17] = ≥90% growth inhibition, 48 hours, vs 2% DMSO control, read-out: Compound Concentration (ppm) sufficient for ≥90% inhibition of Fv
[18] = ≥90% growth inhibition, 48 hours, vs 2% DMSO control, read-out: Compound Concentration (ppm) sufficient for ≥90% inhibition of Pc
[19] = ≥90% growth inhibition, 48 hours, vs 2% DMSO control, read-out: Compound Concentration (ppm) sufficient for ≥90% inhibition of St
[20] = ≥90% growth inhibition, 48 hours, vs 2% DMSO control, read-out: Compound Concentration (ppm) sufficient for ≥90% inhibition of Fm

| SMILES | IC90 [1, 5] [µg/mL] | IC90 (Diplodia maydis (Dm); [6]) [µg/mL] | IC90 (Botrtyis cinerea (Bc); [7]) [µg/mL] | IC90 (Rhizoctonia solani (Rs); [8]) [µg/mL] | IC90 [2, 9] [µg/mL] | IC90 [3, 10] [µg/mL] | IC90 (Septoria tritici (St); [11]) [µg/mL] | IC90 [4, 12] [µg/mL] | IC90 [1, 13] [µg/mL] | IC90 (Diplodia maydis (Dm); [14]) [µg/mL] | IC90 (Botrtyis cinerea (Bc); [15]) [µg/mL] | IC90 (Rhizoctonia solani (Rs); [16]) [µg/mL] | IC90 [2, 17] [µg/mL] | IC90 [3, 18] [µg/mL] | IC90 (Septoria tritici (St); [19]) [µg/mL] | IC90 [4, 20] [µg/mL] | other results |
| --- | --- | --- | --- | --- | --- | --- | --- | --- | --- | --- | --- | --- | --- | --- | --- | --- | --- |
| COc1ccc(F)cc1[C@@H](CCCC#N)Cn1c(=O)n(C(C)(C)C(=O)NC(C)C)c(=O)c2c(C)c(-n3ccnn3)sc21 [Compound I-341] | – | – | – | – | – | – | – | – | – | – | – | – | – | – | – | – | IC90 ([1]; concentration sufficient to ≥90% inhibition of growth, 48 hours vs 2% DMSO control, read-out: Compound Concentration (ppm) for ≥90% inhibition, Cg): > 50 µg/mL; IC90 (Diplodia maydis (Dm); concentration sufficient to ≥90% inhibition of growth, 48 hours vs 2% DMSO control, read-out: Compound Concentration (ppm) for ≥90% inhibition, Dm): > 50 µg/mL; IC90 (Botrtyis cinerea (Bc); concentration sufficient to ≥90% inhibition of growth, 48 hours vs 2% DMSO control, read-out: Compound Concentration (ppm) for ≥90% inhibition, Bc): > 50 µg/mL; IC90 (Rhizoctonia solani (Rs); concentration sufficient to ≥90% inhibition of growth, 48 hours vs 2% DMSO control, read-out: Compound Concentration (ppm) for ≥90% inhibition, Rs): > 50 µg/mL; IC90 ([2]; concentration sufficient to ≥90% inhibition of growth, 48 hours vs 2% DMSO control, read-out: Compound Concentration (ppm) for ≥90% inhibition, Fv): > 50 µg/mL; IC90 ([3]; concentration sufficient to ≥90% inhibition of growth, 48 hours vs 2% DMSO control, read-out: Compound Concentration (ppm) for ≥90% inhibition, Pc): > 50 µg/mL; IC90 (Septoria tritici (St); concentration sufficient to ≥90% inhibition of growth, 48 hours vs 2% DMSO control, read-out: Compound Concentration (ppm) for ≥90% inhibition, St): > 50 µg/mL; IC90 ([4]; concentration sufficient to ≥90% inhibition of growth, 48 hours vs 2% DMSO control, read-out: Compound Concentration (ppm) for ≥90% inhibition, Fm): > 50 µg/mL |
| COc1ccc(F)cc1[C@H](Cn1c(=O)n(C(C)(C)C(=O)N2CCCC2)c(=O)c2c(C)c(-n3nccn3)sc21)OC[C@H](C)O [Compound I-133] | 0.4 (≈ 0.651 µM) | 2 (≈ 3.25 µM) | 2 (≈ 3.25 µM) | ≥ 2 | 0.4 (≈ 0.651 µM) | 50 (≈ 81.3 µM) | ≥ 50 | 0.4 (≈ 0.651 µM) | – | – | – | – | – | – | – | – | – |
| Cc1c(-n2nccn2)sc2c1c(=O)n(C(C)(C)C(=O)NC1CCC1)c(=O)n2C[C@H](OC(C)C)c1cc(F)ccc1OCC#N [Compound I-267] | – | – | – | – | – | – | – | – | 2 (≈ 3.21 µM) | 2 (≈ 3.21 µM) | 0.4 (≈ 0.641 µM) | 0.4 (≈ 0.641 µM) | 0.4 (≈ 0.641 µM) | > 50 | > 50 | 0.08 (≈ 0.128 µM) | – |
| CCO[C@@H](Cn1c(=O)n(C(C)(C)C(=O)N2CCCC2)c(=O)c2c(C)c(-n3nccn3)sc21)c1cc(F)ccc1OC [Compound I-055] | 0.08 (≈ 0.137 µM) | ≥ 0.4 | 0.4 (≈ 0.684 µM) | 0.4 (≈ 0.684 µM) | ≥ 0.08 | > 50 | ≥ 2 | 0.08 (≈ 0.137 µM) | – | – | – | – | – | – | – | – | – |
| COCCOc1ccc(F)cc1[C@H](Cn1c(=O)n(C(C)(C)C(=O)NC(C)C)c(=O)c2c(C)c(-n3nccn3)sc21)OC1CCOCC1 [Compound I-076] | 0.4 (≈ 0.595 µM) | 0.4 (≈ 0.595 µM) | 2 (≈ 2.97 µM) | 0.08 (≈ 0.119 µM) | 0.4 (≈ 0.595 µM) | ≥ 50 | ≥ 10 | 0.08 (≈ 0.119 µM) | – | – | – | – | – | – | – | – | – |
| COc1ccc(F)cc1[C@H](Cn1c(=O)n(C(C)(C)C(=O)N2CCCC2)c(=O)c2c(C)c(-n3cccn3)sc21)OCCO [Compound I-159] | ≥ 10 | ≥ 50 | 10 (≈ 16.7 µM) | ≥ 10 | 2 (≈ 3.34 µM) | > 50 | > 50 | 2 (≈ 3.34 µM) | – | – | – | – | – | – | – | – | – |

The next lines start with results.

| IC90 [1, 5] [µg/mL] | IC90 (Diplodia maydis (Dm); [6]) [µg/mL] | IC90 (Botrtyis cinerea (Bc); [7]) [µg/mL] | IC90 (Rhizoctonia solani (Rs); [8]) [µg/mL] | IC90 [2, 9] [µg/mL] | IC90 [3, 10] [µg/mL] | IC90 (Septoria tritici (St); [11]) [µg/mL] | IC90 [4, 12] [µg/mL] | IC90 [1, 13] [µg/mL] | IC90 (Diplodia maydis (Dm); [14]) [µg/mL] | IC90 (Botrtyis cinerea (Bc); [15]) [µg/mL] | IC90 (Rhizoctonia solani (Rs); [16]) [µg/mL] | IC90 [2, 17] [µg/mL] | IC90 [3, 18] [µg/mL] | IC90 (Septoria tritici (St); [19]) [µg/mL] | IC90 [4, 20] [µg/mL] | SMILES | other results |
| --- | --- | --- | --- | --- | --- | --- | --- | --- | --- | --- | --- | --- | --- | --- | --- | --- | --- |
| – | – | – | – | – | – | – | – | > 50 | > 50 | 50 (≈ 83 µM) | > 50 | 10 (≈ 16.6 µM) | > 50 | > 50 | 2 (≈ 3.32 µM) | COc1ccc(F)cc1[C@H](Cn1c(=O)n(C(C)(C)C(=O)NC(C)C)c(=O)c2c(C)c(-n3nccn3)sc21)OCCCO [Compound I-319] | – |
| – | – | – | – | – | – | – | – | 10 (≈ 17.5 µM) | 10 (≈ 17.5 µM) | 2 (≈ 3.49 µM) | 2 (≈ 3.49 µM) | 2 (≈ 3.49 µM) | > 50 | > 50 | 0.4 (≈ 0.699 µM) | CCNC(=O)C(C)(C)n1c(=O)c2c(C)c(-n3nccn3)sc2n(C[C@H](OC(C)=O)c2cc(F)ccc2OC)c1=O [Compound I-324] | – |

From patent US10941157B2, “Pesticidal compositions and uses thereof” (Gilead Apollo, LLC, priority 2015, dated 2021)
